Test results published in ChEMBL document CHEMBL1201862, “PubChem BioAssay data set” (2004).
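Each compound was tested at five concentrations against cells in 96-well plates for 48 hours. At the GI50, growth is halved.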 The source made the active and inactive calls. Cut-off read from the data, not from the text of the source: active = GI50 up to about 1.1 µM and inactive = higher.

What was measured:
Assay in all cases: growth of human tumour cells (NCI), 48 h
SNB-19 = system: SNB-19
SNB-75 = system: SNB-75
KM12 = system: KM12
SK-MEL-28 = system: SK-MEL-28
MOLT-4 = system: MOLT-4
A498 = system: A498
HOP-62 = system: HOP-62
786-0 = system: 786-0
NCI-H226 = system: NCI-H226
RXF 393 = system: RXF 393
HL-60 = system: HL-60
SK-OV-3 = system: SK-OV-3
COLO 205 = system: COLO 205
HT-29 = system: HT-29
SW-620 = system: SW-620
NCI-H23 = system: NCI-H23
SF-539 = system: SF-539
TK-10 = system: TK-10
IGROV-1 = system: IGROV-1
SN12C = system: SN12C

SMILES	GI50 (SNB-19)	GI50 (SNB-75)	GI50 (KM12)	GI50 (SK-MEL-28)	GI50 (MOLT-4)	GI50 (A498)	GI50 (HOP-62)	GI50 (786-0)	GI50 (NCI-H226)	GI50 (RXF 393)	GI50 (HL-60)	GI50 (SK-OV-3)	GI50 (COLO 205)	GI50 (HT-29)	GI50 (SW-620)	GI50 (NCI-H23)	GI50 (SF-539)	GI50 (TK-10)	GI50 (IGROV-1)	GI50 (SN12C)
COC(=O)c1cc2c(s1)C(=O)c1ccccc1-2	> 100 µM (inactive)	> 100 µM (inactive)	> 100 µM (inactive)	> 100 µM (inactive)	> 100 µM (inactive)	> 100 µM (inactive)	> 100 µM (inactive)	> 100 µM (inactive)	> 100 µM (inactive)	> 100 µM (inactive)	> 100 µM (inactive)	> 100 µM (inactive)	> 100 µM (inactive)	> 10 µM (inactive)	> 100 µM (inactive)	> 100 µM (inactive)	> 100 µM (inactive)	> 100 µM (inactive)	> 100 µM (inactive)	> 100 µM (inactive)
S=C(Cc1ccc2c(c1)Sc1ccccc1O2)N1CCOCC1	> 100 µM (inactive)	18.7 µM (inactive)	29 µM (inactive)	59.7 µM (inactive)	52.1 µM (inactive)	50.6 µM (inactive)	> 100 µM (inactive)	56.9 µM (inactive)	28.8 µM (inactive)	69.8 µM (inactive)	16 µM (inactive)	49.9 µM (inactive)	36.6 µM (inactive)	24.6 µM (inactive)	43 µM (inactive)	46.2 µM (inactive)	21.2 µM (inactive)	> 100 µM (inactive)	33.7 µM (inactive)	> 100 µM (inactive)
O=C1NC2OCC(O)C(O1)C2O (centres undefined)	> 100 µM (inactive)	> 100 µM (inactive)	> 100 µM (inactive)	> 100 µM (inactive)	> 100 µM (inactive)	> 100 µM (inactive)	> 100 µM (inactive)	> 100 µM (inactive)	> 100 µM (inactive)	> 100 µM (inactive)	> 100 µM (inactive)	> 100 µM (inactive)	> 100 µM (inactive)	> 100 µM (inactive)	> 100 µM (inactive)	> 100 µM (inactive)	> 100 µM (inactive)	> 100 µM (inactive)	> 100 µM (inactive)	> 100 µM (inactive)
C(=C\c1csnn1)/c1cccnc1	> 100 µM (inactive)	> 100 µM (inactive)	> 100 µM (inactive)	> 100 µM (inactive)	> 100 µM (inactive)	> 100 µM (inactive)	> 100 µM (inactive)	> 100 µM (inactive)	> 100 µM (inactive)	> 100 µM (inactive)	> 100 µM (inactive)	> 100 µM (inactive)	> 100 µM (inactive)	> 100 µM (inactive)	> 100 µM (inactive)	> 100 µM (inactive)	> 100 µM (inactive)	> 100 µM (inactive)		> 100 µM (inactive)
CCOc1ccc(NC(=O)C(=O)CC(=O)c2c(C)[n+]([O-])c3ccccc3[n+]2[O-])cc1	> 100 µM (inactive)	> 100 µM (inactive)	> 100 µM (inactive)	> 100 µM (inactive)	81.5 µM (inactive)	> 100 µM (inactive)	> 100 µM (inactive)	> 100 µM (inactive)	> 100 µM (inactive)	> 100 µM (inactive)	> 100 µM (inactive)	> 100 µM (inactive)	> 100 µM (inactive)	> 100 µM (inactive)	> 100 µM (inactive)	> 100 µM (inactive)	> 100 µM (inactive)	> 100 µM (inactive)	> 100 µM (inactive)	> 100 µM (inactive)
CCCCCCCCCCCC(=O)OCC(C[As](=O)(O)O)OC(=O)CCCCCCCCCCC (centres undefined)	3.28 µM (inactive)	6.95 µM (inactive)	7.1 µM (inactive)	2.96 µM (inactive)	3.96 µM (inactive)	5.15 µM (inactive)	26.9 µM (inactive)	13.4 µM (inactive)	16.2 µM (inactive)	2.43 µM (inactive)	2.61 µM (inactive)	13.8 µM (inactive)	7.67 µM (inactive)	7.62 µM (inactive)	12.1 µM (inactive)	5.61 µM (inactive)	7.89 µM (inactive)	14.3 µM (inactive)	1.74 µM (inactive)	2.94 µM (inactive)
CS(=O)(=O)c1n[nH]c2nc(O)nc(O)c12	> 10 µM (inactive)	> 10 µM (inactive)	> 10 µM (inactive)	> 10 µM (inactive)	> 10 µM (inactive)	> 10 µM (inactive)	> 10 µM (inactive)	> 10 µM (inactive)	> 10 µM (inactive)	> 10 µM (inactive)	> 10 µM (inactive)	> 10 µM (inactive)	> 10 µM (inactive)	> 10 µM (inactive)	> 10 µM (inactive)	> 10 µM (inactive)	> 10 µM (inactive)	> 10 µM (inactive)	> 10 µM (inactive)	> 10 µM (inactive)
O=c1[nH]nc(-c2ccccc2)n1/N=C/c1ccccc1Cl	> 100 µM (inactive)	36.5 µM (inactive)	12 µM (inactive)	52 µM (inactive)	22.4 µM (inactive)	30.1 µM (inactive)	29.4 µM (inactive)	32.5 µM (inactive)	30.8 µM (inactive)	25.4 µM (inactive)	19.5 µM (inactive)	48.8 µM (inactive)	37.1 µM (inactive)	28.9 µM (inactive)	50.7 µM (inactive)	34.7 µM (inactive)	39.3 µM (inactive)	75.9 µM (inactive)	21.8 µM (inactive)	48.8 µM (inactive)
COc1c2c(nc3ccccc13)-c1cc3c(c(=O)n1C2)COC(=O)C3(O)CC(=O)N1CCOCC1 (centres undefined)	1.27 µM (inactive)	1.35 µM (inactive)	17.1 µM (inactive)	17 µM (inactive)	0.29 µM (active)	13.2 µM (inactive)	1 µM (active)	2.07 µM (inactive)	6 µM (inactive)	6.01 µM (inactive)	2.72 µM (inactive)	9.48 µM (inactive)	27.8 µM (inactive)	17.3 µM (inactive)	5.4 µM (inactive)	1.75 µM (inactive)	0.964 µM (active)	75 µM (inactive)	44.1 µM (inactive)	1.59 µM (inactive)
COc1ccc(OC)c(/C=C/NC=O)c1	> 100 µM (inactive)	> 51.6 µM (inactive)	> 100 µM (inactive)	> 100 µM (inactive)	> 100 µM (inactive)	> 100 µM (inactive)	> 100 µM (inactive)	> 100 µM (inactive)	> 100 µM (inactive)	> 100 µM (inactive)	> 100 µM (inactive)	> 100 µM (inactive)	> 71.3 µM (inactive)	> 100 µM (inactive)	> 54.5 µM (inactive)	> 100 µM (inactive)	> 100 µM (inactive)	> 100 µM (inactive)	> 100 µM (inactive)	> 100 µM (inactive)
